Assay results as given in the supplement of paper PMC8633005.

Assays:
Experiment in all cases: drug sensitivity score (DSS) (DSS (unitless, 0-50 scale)); higher = more sensitive (stronger viability inhibition); extreme values may be limits of the assay
Conditions in all cases: 72 h; culture: 2D
FM-MEL-3 = tested on: FM-MEL-3
How it was run: (§1)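 Drug sensitivity scores, modified area-under-curve measures, were derived from dose-response curves fitted in the in-house Breeze software. The curves came from melanoma cell lines and patient-derived melanoma cultures (1000–1500 cells per well) grown in 2D in 384-well plates holding a 527-compound oncology library. Each compound was dissolved in DMSO or water and tested at five concentrations across a 10,000-fold range. Viability was read by CellTiter-Glo luminescence after 72 h at 37 °C.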

Bowes = tested on: Bowes
How it was run: as §1

SK-MEL-2 = tested on: SK-MEL-2
How it was run: as §1

WM852 = tested on: WM852
How it was run: as §1

WM165 = tested on: WM165
How it was run: as §1

FM-MEL-6 = tested on: FM-MEL-6
How it was run: as §1

FM-MEL-2 = tested on: FM-MEL-2
How it was run: as §1

SK-MEL-28 = tested on: SK-MEL-28
How it was run: as §1

| SMILES | drug sensitivity score (FM-MEL-3) | drug sensitivity score (Bowes) | drug sensitivity score (SK-MEL-2) | drug sensitivity score (WM852) | drug sensitivity score (WM165) | drug sensitivity score (FM-MEL-6) | drug sensitivity score (FM-MEL-2) | drug sensitivity score (SK-MEL-28) |
| --- | --- | --- | --- | --- | --- | --- | --- | --- |
| C[C@H]1C[C@@H]2[C@H]([C@@H](O)C[C@@]3(C)[C@H]2CC[C@]3(O)C(=O)CO)[C@@]2(C)C=CC(=O)C=C12 [Methylprednisolone] | 1.2 | 1 | 0 | 0 | 0 | 0 | 0 | 0.4 |
| CO[C@@H]1[C@H](N(C)C(=O)c2ccccc2)C[C@H]2O[C@]1(C)n1c3ccccc3c3c4c(c5c6ccccc6n2c5c31)C(=O)NC4 [Midostaurin] | 5.4 | 5.1 | 2.9 | 8.1 | 14.6 | 2.3 | 3.5 | 4.3 |
| CNC(=O)c1nn(C)c2c1C(C)(C)Cc1cnc(Nc3ccc(N4CCN(C)CC4)cc3)nc1-2 [Milciclib] | 7.5 | 11 | 7 | 5.1 | 12 | 9 | 6.5 | 8.7 |
| CCCCCCCCCCCCCCCCOP(=O)([O-])OCC[N+](C)(C)C [Miltefosine] | 6 | 5.9 | 2.1 | 2 | 6.2 | 1.2 | 0.4 | 1.8 |
| CO[C@@]12[C@H](COC(N)=O)C3=C(C(=O)C(C)=C(N)C3=O)N1C[C@@H]1N[C@@H]12 [Mitomycin C] | 3.5 | 3.1 | 2 | 0 | 6.2 | 0.8 | 0.2 | 1.9 |
| Clc1ccc(C(c2ccccc2Cl)C(Cl)Cl)cc1 (stereo not drawn) [Mitotane] | 0 | 1 | 0 | 0 | 0 | 0 | 0 | 0 |
| O=C1c2c(O)ccc(O)c2C(=O)c2c(NCCNCCO)ccc(NCCNCCO)c21 [Mitoxantrone] | 3.9 | 6.7 | 3.4 | 5.5 | 16.8 | 5.4 | 7.1 | 6.1 |
| CCS(=O)(=O)Nc1ccc(Oc2ccc(F)cc2F)c(-c2cn(C)c(=O)c3[nH]ccc23)c1 [Mivebresib] | 16.2 | 17 | 9 | 0.4 | 24.2 | 15.8 | 16.3 | 12.2 |
| Nc1ccccc1NC(=O)c1ccc(CNc2nccc(-c3cccnc3)n2)cc1 [Mocetinostat] | 8.4 | 6.4 | 9.4 | 1.7 | 11.9 | 11.4 | 6.7 | 9.9 |
| CCNC(=O)C[C@@H]1N=C(c2ccc(Cl)cc2)c2cc(OC)ccc2-n2c(C)nnc21 [Molibresib] | 4.8 | 3.8 | 0.5 | 0 | 6.5 | 5 | 3.8 | 1.8 |
| N#CCNC(=O)c1ccc(-c2ccnc(Nc3ccc(N4CCOCC4)cc3)n2)cc1 [Momelotinib] | 1.2 | 4.1 | 0.2 | 1.9 | 7.2 | 1.1 | 3.7 | 3.7 |
| CC1(C)CNc2cc(NC(=O)c3cccnc3NCc3ccncc3)ccc21 [Motesanib] | 0 | 0 | 0 | 0 | 0 | 0 | 0 | 0 |
| CCCN(CCC)C(=O)C1=Cc2ccc(-c3ccc(C(=O)N4CCCC4)cc3)cc2N=C(N)C1 [Motolimod] | 1.1 | 1.6 | 0 | 2.8 | 0 | 1.3 | 0.5 | 0 |
| FC(F)(F)c1ccc(/C=C/c2nc(COc3ccc(CCCCn4ccnn4)cc3)co2)cc1 [Mubritinib] | 9.3 | 6.4 | 0 | 15.5 | 2.3 | 0 | 0 | 0 |
| Cc1cc(OCc2nnc(SC3CCCC3)n2-c2cccnc2)ccc1-c1ccc(S(C)(=O)=O)cc1 [NMS-873] | 11.4 | 11.1 | 4.4 | 16.9 | 9.4 | 5 | 4.1 | 6.8 |
| COc1ccc(-c2ccc3ncc4c(c3c2)n(-c2ccc(N3CCNCC3)c(C(F)(F)F)c2)c(=O)n4C)cn1 [NVP-BGT226] | 13.1 | 19 | 13.6 | 11.9 | 18.3 | 12 | 11.7 | 11.5 |
| Cc1ccc(C(=O)Nc2cccc(C(F)(F)F)c2)cc1Nc1nc(-c2cccnc2)nc2c1cnn2C [NVP-BHG712] | 10.6 | 0 | 0 | 4.7 | 1.9 | 3.6 | 6.8 | 1.3 |
| COc1cc2c(cc1OC(C)C)[C@H](c1ccc(Cl)cc1)N(c1ccc(N(C)C[C@H]3CC[C@H](N4CCN(C)C(=O)C4)CC3)cc1)C(=O)C2 [NVP-CGM097] | 13.1 | 5.1 | 3.7 | 6.8 | 18 | 5 | 7.6 | 6.2 |
| CN[C@@H](C)C(=O)N[C@H](C(=O)N1CCC[C@H]1c1nc(C(=O)c2ccc(F)cc2)cs1)C1CCCCC1 [NVP-LCL161] | 4.5 | 3 | 0.2 | 2.4 | 0 | 3.9 | 14.9 | 0.9 |
| Cn1c(Nc2ccc(C(F)(F)F)cc2)nc2cc(Oc3ccnc(-c4ncc(C(F)(F)F)[nH]4)c3)ccc21 [NVP-RAF265] | 9.2 | 0.1 | 2.6 | 0 | 8.2 | 2 | 5.5 | 2.7 |
| CC(=O)c1cc2c(o1)C(=O)c1ccccc1C2=O [Napabucasin] | 19.6 | 20.5 | 15.7 | 19.1 | 27 | 22.1 | 4.2 | 16.8 |
